We go through 9 compounds from PubChem BioAssay (NCI).

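1) Cells in 96-well plates. 2) Compound, 48 h, 5 concentrations. 3) Linear interpolation between surrounding doses. 4) Unreached endpoint = highest concentration. GI50 marks 50% less growth. TGI: total growth inhibition.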 Some results are limits rather than exact numbers.

Some test systems named below: HCT-116 colon; OVCAR-4 ovarian; A498 renal; MDA-MB-435; NCI-H522 lung; OVCAR-3 ovarian; OVCAR-8 ovarian; UACC-62 melanoma; HL-60(TB) leukemia; MALME-3M melanoma.
What all share (test): NCI-60 cell line screen, 48 h

Consider `Cc1cc(N(CCNc2ccnc3cc(Cl)ccc23)Cc2ccc3c(c2)OCO3)nc(N2CCN(C)CC2)n1`, for which the GI50 in the assay on HCT-116 colon was 1.41 µM; in the assay with OVCAR-4 ovarian, 2.83 µM; with A498 renal, 2.43 µM; with MDA-MB-435, 1.61 µM; with NCI-H522 lung, 1.85 µM; in the assay on OVCAR-3 ovarian, 2.73 µM. Further, the GI50 is 3.18 µM with OVCAR-8 ovarian, 1.9 µM in the assay with UACC-62 melanoma, 2.06 µM with HL-60(TB) leukemia and 1.77 µM in the assay on MALME-3M melanoma. For the same compound, the TGI with HCT-116 colon stood at 4.7 µM; with OVCAR-4 ovarian, 13.9 µM; in the assay with A498 renal, 8.85 µM; in the assay on MDA-MB-435, 3.07 µM; in the assay on NCI-H522 lung, 3.81 µM; in the assay on OVCAR-3 ovarian, 10.9 µM. The TGI in the assay on OVCAR-8 ovarian came out at 11.2 µM; with UACC-62 melanoma, 3.51 µM; in the assay on HL-60(TB) leukemia, 4.27 µM; in the assay on MALME-3M melanoma, 3.36 µM.
Take `Cc1ccc(C(=O)/C(=C/c2ccc([N+](=O)[O-])cc2)S(=O)Cc2ccccc2)cc1` (stereo not given): the GI50 was 1.57 µM with HCT-116 colon; 1.35 µM in the assay on OVCAR-4 ovarian; 1.75 µM in the assay with A498 renal; 1.47 µM with MDA-MB-435; 1.46 µM in the assay on NCI-H522 lung; 1.28 µM in the assay with OVCAR-3 ovarian. In addition, the GI50 in the assay with OVCAR-8 ovarian is 1.36 µM; in the assay with UACC-62 melanoma, 1.3 µM; in the assay on HL-60(TB) leukemia, 1.59 µM; with MALME-3M melanoma, 1.69 µM. Further, the TGI worked out at 2.99 µM in the assay with HCT-116 colon; 2.78 µM in the assay on OVCAR-4 ovarian; 3.4 µM in the assay with A498 renal; 3.04 µM with MDA-MB-435; 2.9 µM in the assay on NCI-H522 lung; 2.57 µM in the assay with OVCAR-3 ovarian. Further, the TGI worked out at 3.23 µM in the assay on OVCAR-8 ovarian, 2.79 µM with UACC-62 melanoma, 5.81 µM in the assay with HL-60(TB) leukemia and 3.54 µM with MALME-3M melanoma.
On to `Fc1cccc(COc2ccc(Nc3ncnc4sc(-c5ccco5)cc34)cc2Cl)c1`, for which the GI50 with HCT-116 colon, with OVCAR-4 ovarian, with A498 renal, with MDA-MB-435, with NCI-H522 lung and in the assay on OVCAR-3 ovarian was greater than 25 µM throughout. For the same compound, the GI50 in the assay with OVCAR-8 ovarian, with UACC-62 melanoma, in the assay on HL-60(TB) leukemia and in the assay on MALME-3M melanoma was greater than 25 µM in each case. For the same compound, the TGI with HCT-116 colon, in the assay with OVCAR-4 ovarian, with A498 renal, in the assay with MDA-MB-435, with NCI-H522 lung and with OVCAR-3 ovarian was greater than 25 µM in each case. Also, the TGI with OVCAR-8 ovarian, in the assay on UACC-62 melanoma, in the assay on HL-60(TB) leukemia and in the assay with MALME-3M melanoma was greater than 25 µM in each case.
Regarding `Nc1c(C(=O)Nc2ccc([As](=O)(O)O)cc2)cnc2nnnn12`, the TGI in the assay on HCT-116 colon, with OVCAR-4 ovarian, with A498 renal, with MDA-MB-435, in the assay on NCI-H522 lung and with OVCAR-3 ovarian was greater than 100 µM in each case. The TGI in the assay on OVCAR-8 ovarian, in the assay on UACC-62 melanoma, with HL-60(TB) leukemia and with MALME-3M melanoma was greater than 100 µM in each case.
Take `Cc1cc2c(cc1C)NC1=C(N2)OC(c2c[nH]c3ccc(COc4ccccc4)cc23)C1=O` (stereo not given): the TGI in the assay with HCT-116 colon, with OVCAR-4 ovarian, in the assay with A498 renal, with MDA-MB-435, with NCI-H522 lung and in the assay on OVCAR-3 ovarian was greater than 100 µM in each case. Besides, the TGI in the assay with OVCAR-8 ovarian, with UACC-62 melanoma, in the assay with HL-60(TB) leukemia and in the assay on MALME-3M melanoma was greater than 100 µM in each case.
Consider `COc1ccc(-c2cc(-c3ccc(Cl)cc3)c(C#N)c(=O)n2CCCCC(=O)Nc2ccccc2N)cc1`, for which the GI50 is 3.25 µM in the assay on HCT-116 colon; 10.5 µM in the assay with OVCAR-4 ovarian; 1.79 µM with A498 renal; 5.8 µM in the assay on MDA-MB-435; 7.04 µM in the assay on NCI-H522 lung; 13.5 µM in the assay on OVCAR-3 ovarian. For the same compound, the GI50 in the assay with OVCAR-8 ovarian is 4.7 µM; with UACC-62 melanoma it was 3.29 µM; in the assay with HL-60(TB) leukemia it was 2.08 µM; in the assay on MALME-3M melanoma it was 4.7 µM. Also, the TGI in the assay on HCT-116 colon is 20.7 µM; in the assay on OVCAR-4 ovarian, greater than 100 µM; with A498 renal it was 48.9 µM; in the assay on MDA-MB-435, greater than 100 µM; in the assay on NCI-H522 lung it was 57.1 µM; in the assay with OVCAR-3 ovarian, 56.6 µM. The TGI in the assay on OVCAR-8 ovarian is greater than 100 µM; with UACC-62 melanoma, 13 µM; in the assay on HL-60(TB) leukemia, 5.7 µM; in the assay on MALME-3M melanoma, 31.1 µM.
`COc1cc(-c2oc3ccccc3c(=O)c2O)cc(OC)c1OC`: the TGI in the assay with HCT-116 colon is greater than 100 µM; in the assay with OVCAR-4 ovarian it was greater than 100 µM; with A498 renal, greater than 100 µM; in the assay with MDA-MB-435 it was greater than 100 µM; in the assay on NCI-H522 lung, greater than 80.3 µM; with OVCAR-3 ovarian it was greater than 100 µM. The TGI in the assay with OVCAR-8 ovarian was greater than 100 µM; in the assay with UACC-62 melanoma, greater than 100 µM; with HL-60(TB) leukemia it was greater than 28.1 µM; with MALME-3M melanoma it was greater than 100 µM.
Consider `Nc1cc2c3c(cccc3c1)NC2=O`, for which the TGI with HCT-116 colon was greater than 100 µM; in the assay with OVCAR-4 ovarian it was greater than 100 µM; in the assay with A498 renal, greater than 100 µM; in the assay with MDA-MB-435, greater than 100 µM; in the assay on NCI-H522 lung it was 74 µM; with OVCAR-3 ovarian, greater than 100 µM. The TGI with OVCAR-8 ovarian, in the assay on UACC-62 melanoma, with HL-60(TB) leukemia and with MALME-3M melanoma was greater than 100 µM throughout.
For the compound `Clc1ccccc1NN(Cc1ccccn1)c1ccccc1Cl`, the TGI in the assay with HCT-116 colon came to 28.8 µM; with OVCAR-4 ovarian it was 37.2 µM; in the assay on A498 renal it was 34.9 µM; in the assay on MDA-MB-435, 34.9 µM; in the assay on NCI-H522 lung, 41.1 µM; with OVCAR-3 ovarian, 32.9 µM. Besides, the TGI with OVCAR-8 ovarian turned out to be 39.9 µM; in the assay on UACC-62 melanoma, 43.8 µM; in the assay on HL-60(TB) leukemia it was 44 µM; with MALME-3M melanoma, 37.4 µM.
